# Source: PubChem BioAssay (NCI)
#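 All cell lines were grown in 96-well plates and treated with compound for 48 hours. GI50 marks 50% less growth. Definition used: TGI = concentration required for complete inhibition of growth.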
# Experiments:
# Test in all cases: DTP human tumour cell line panel, 48 h
# HS 578T breast = system: HS 578T breast
# NCI-H226 lung = system: NCI-H226 lung
# SW-620 colon = system: SW-620 colon
# A498 renal = system: A498 renal
# KM12 colon = system: KM12 colon
# ACHN renal = system: ACHN renal
# A549 NSCLC = system: A549 NSCLC
# OVCAR-4 ovarian = system: OVCAR-4 ovarian
# M14 melanoma = system: M14 melanoma
# SNB-19 CNS = system: SNB-19 CNS
# OVCAR-3 ovarian = system: OVCAR-3 ovarian
# LOX IMVI melanoma = system: LOX IMVI melanoma
# SK-MEL-28 melanoma = system: SK-MEL-28 melanoma
# MDA-MB-231 breast = system: MDA-MB-231 breast
# MALME-3M melanoma = system: MALME-3M melanoma
# RXF 393 renal = system: RXF 393 renal
# NCI/ADR-RES ovarian = system: NCI/ADR-RES ovarian
# NCI-H460 lung = system: NCI-H460 lung
# HOP-92 NSCLC = system: HOP-92 NSCLC
# SK-MEL-5 melanoma = system: SK-MEL-5 melanoma
# U251 CNS = system: U251 CNS
# MOLT-4 leukemia = system: MOLT-4 leukemia
# OVCAR-8 ovarian = system: OVCAR-8 ovarian
# PC-3 prostate = system: PC-3 prostate
# TK-10 renal = system: TK-10 renal
# HCT-116 colon = system: HCT-116 colon
# UACC-257 melanoma = system: UACC-257 melanoma
# HOP-62 NSCLC = system: HOP-62 NSCLC
# EKVX NSCLC = system: EKVX NSCLC
# SNB-75 CNS = system: SNB-75 CNS
# HCC-2998 colon = system: HCC-2998 colon
# MDA-MB-435 = system: MDA-MB-435
# SF-268 CNS = system: SF-268 CNS
# SF-539 CNS = system: SF-539 CNS
# 786-0 renal = system: 786-0 renal
# NCI-H23 lung = system: NCI-H23 lung
# COLO 205 colon = system: COLO 205 colon
# SK-OV-3 ovarian = system: SK-OV-3 ovarian
# SN12C renal = system: SN12C renal
# CAKI-1 renal = system: CAKI-1 renal
# HT29 colon = system: HT29 colon
# SR leukemia = system: SR leukemia
# UACC-62 melanoma = system: UACC-62 melanoma
# HCT-15 colon = system: HCT-15 colon
# HL-60(TB) leukemia = system: HL-60(TB) leukemia
# K-562 leukemia = system: K-562 leukemia
# DU-145 prostate = system: DU-145 prostate
# MCF7 breast = system: MCF7 breast
# SF-295 CNS = system: SF-295 CNS
# CCRF-CEM leukemia = system: CCRF-CEM leukemia
# OVCAR-5 ovarian = system: OVCAR-5 ovarian
# BT-549 breast = system: BT-549 breast
# T-47D breast = system: T-47D breast
# SK-MEL-2 melanoma = system: SK-MEL-2 melanoma
smiles,measurement,setting,value
O=C(NNS(=O)(=O)c1ccc(F)cc1)c1cccnc1Nc1ccc(Cl)cc1Cl,GI50,HS 578T breast,27.9 µM
same,TGI,HS 578T breast,> 100 µM
same,GI50,NCI-H226 lung,29.6 µM
same,TGI,NCI-H226 lung,96.9 µM
same,GI50,SW-620 colon,29.1 µM
same,TGI,SW-620 colon,> 100 µM
same,GI50,A498 renal,17.3 µM
same,TGI,A498 renal,36.5 µM
same,GI50,KM12 colon,23 µM
same,TGI,KM12 colon,48.5 µM
same,GI50,ACHN renal,46.1 µM
same,TGI,ACHN renal,> 100 µM
same,GI50,A549 NSCLC,17.2 µM
same,TGI,A549 NSCLC,41 µM
same,GI50,OVCAR-4 ovarian,38 µM
same,TGI,OVCAR-4 ovarian,> 100 µM
same,GI50,M14 melanoma,46.5 µM
same,TGI,M14 melanoma,> 100 µM
same,GI50,SNB-19 CNS,29.2 µM
same,TGI,SNB-19 CNS,> 100 µM
same,GI50,OVCAR-3 ovarian,29.7 µM
same,TGI,OVCAR-3 ovarian,94.5 µM
same,GI50,LOX IMVI melanoma,32.1 µM
same,TGI,LOX IMVI melanoma,> 100 µM
same,GI50,SK-MEL-28 melanoma,89.2 µM
same,TGI,SK-MEL-28 melanoma,> 100 µM
same,GI50,MDA-MB-231 breast,28.8 µM
same,TGI,MDA-MB-231 breast,> 100 µM
same,GI50,MALME-3M melanoma,34.7 µM
same,TGI,MALME-3M melanoma,> 100 µM
same,GI50,RXF 393 renal,11.4 µM
same,TGI,RXF 393 renal,27.6 µM
same,GI50,NCI/ADR-RES ovarian,39.8 µM
same,TGI,NCI/ADR-RES ovarian,> 100 µM
same,GI50,NCI-H460 lung,31.4 µM
same,TGI,NCI-H460 lung,> 100 µM
same,GI50,HOP-92 NSCLC,15.4 µM
same,TGI,HOP-92 NSCLC,36.1 µM
same,GI50,SK-MEL-5 melanoma,25.3 µM
same,TGI,SK-MEL-5 melanoma,86 µM
same,GI50,U251 CNS,29.1 µM
same,TGI,U251 CNS,> 100 µM
same,GI50,MOLT-4 leukemia,22.9 µM
same,TGI,MOLT-4 leukemia,> 100 µM
same,GI50,OVCAR-8 ovarian,26.9 µM
same,TGI,OVCAR-8 ovarian,> 100 µM
same,GI50,PC-3 prostate,14.8 µM
same,TGI,PC-3 prostate,32.1 µM
same,GI50,TK-10 renal,33.8 µM
same,TGI,TK-10 renal,> 100 µM
same,GI50,HCT-116 colon,30.3 µM
same,TGI,HCT-116 colon,> 100 µM
same,GI50,UACC-257 melanoma,11.8 µM
same,TGI,UACC-257 melanoma,51.9 µM
same,GI50,HOP-62 NSCLC,30.9 µM
same,TGI,HOP-62 NSCLC,84.5 µM
same,GI50,EKVX NSCLC,29.5 µM
same,TGI,EKVX NSCLC,> 100 µM
same,GI50,SNB-75 CNS,25.5 µM
same,TGI,SNB-75 CNS,> 100 µM
same,GI50,HCC-2998 colon,30 µM
same,TGI,HCC-2998 colon,> 100 µM
same,GI50,MDA-MB-435,84.4 µM
same,TGI,MDA-MB-435,> 100 µM
same,GI50,SF-268 CNS,45.2 µM
same,TGI,SF-268 CNS,> 100 µM
same,GI50,SF-539 CNS,26 µM
same,TGI,SF-539 CNS,73.7 µM
same,GI50,786-0 renal,23 µM
same,TGI,786-0 renal,53.6 µM
same,GI50,NCI-H23 lung,36.5 µM
same,TGI,NCI-H23 lung,> 100 µM
same,GI50,COLO 205 colon,16.4 µM
same,TGI,COLO 205 colon,50.8 µM
same,GI50,SK-OV-3 ovarian,38.1 µM
same,TGI,SK-OV-3 ovarian,> 100 µM
same,GI50,SN12C renal,17.6 µM
same,TGI,SN12C renal,31.7 µM
same,GI50,CAKI-1 renal,31.2 µM
same,TGI,CAKI-1 renal,> 100 µM
same,GI50,HT29 colon,22.1 µM
same,TGI,HT29 colon,57.8 µM
same,GI50,SR leukemia,22.9 µM
same,TGI,SR leukemia,67.6 µM
same,GI50,UACC-62 melanoma,46 µM
same,TGI,UACC-62 melanoma,> 100 µM
same,GI50,HCT-15 colon,26.8 µM
same,TGI,HCT-15 colon,83.5 µM
same,GI50,HL-60(TB) leukemia,25.2 µM
same,TGI,HL-60(TB) leukemia,62.3 µM
same,GI50,K-562 leukemia,20.1 µM
same,TGI,K-562 leukemia,83.2 µM
same,GI50,DU-145 prostate,22.9 µM
same,TGI,DU-145 prostate,55.4 µM
same,GI50,MCF7 breast,31.5 µM
same,TGI,MCF7 breast,> 100 µM
same,GI50,SF-295 CNS,36.9 µM
same,TGI,SF-295 CNS,> 100 µM
same,GI50,CCRF-CEM leukemia,21.1 µM
same,TGI,CCRF-CEM leukemia,> 100 µM
same,GI50,OVCAR-5 ovarian,52.2 µM
same,TGI,OVCAR-5 ovarian,> 100 µM
same,GI50,BT-549 breast,36 µM
same,TGI,BT-549 breast,> 100 µM
same,GI50,T-47D breast,18.7 µM
same,TGI,T-47D breast,98.1 µM
same,GI50,SK-MEL-2 melanoma,42.3 µM
same,TGI,SK-MEL-2 melanoma,> 100 µM
